# Source: ChEMBL document CHEMBL4261574 (Medchemcomm, 2018)
# Legend:
# [1] = biological target: T1, Prostaglandin G/H synthase 2 (Homo sapiens, UniProt P35354)
# T1 sequence (P35354 whole entry): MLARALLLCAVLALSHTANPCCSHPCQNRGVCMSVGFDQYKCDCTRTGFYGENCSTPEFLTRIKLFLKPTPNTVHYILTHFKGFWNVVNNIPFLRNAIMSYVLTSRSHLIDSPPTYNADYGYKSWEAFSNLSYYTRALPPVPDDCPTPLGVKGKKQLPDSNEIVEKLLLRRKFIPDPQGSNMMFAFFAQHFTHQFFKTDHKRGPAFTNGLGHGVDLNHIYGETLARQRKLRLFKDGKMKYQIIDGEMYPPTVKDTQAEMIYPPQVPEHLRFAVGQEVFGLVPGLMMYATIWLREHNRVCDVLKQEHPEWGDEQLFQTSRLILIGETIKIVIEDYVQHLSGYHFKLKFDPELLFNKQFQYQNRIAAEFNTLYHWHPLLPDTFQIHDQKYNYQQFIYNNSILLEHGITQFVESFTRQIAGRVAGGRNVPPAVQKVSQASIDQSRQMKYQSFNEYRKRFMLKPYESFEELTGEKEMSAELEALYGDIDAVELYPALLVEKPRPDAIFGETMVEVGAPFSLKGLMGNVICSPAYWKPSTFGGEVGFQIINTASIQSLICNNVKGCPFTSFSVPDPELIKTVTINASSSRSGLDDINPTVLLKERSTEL
# [2] = Selectivity index, ratio of IC50 for ovine COX-1 to IC50 for recombinant human COX-2
# [3] = biological target: T2, Prostaglandin G/H synthase 1 (Ovis aries, UniProt P05979); assay: Inhibition of ovine COX-1 assessed as reduction of prostaglandin-G2 to prostaglandin-H2 by measuring oxidation of 10-acetyl-3,7-dihydroxyphenoxazine to resorufin after 5 mins by fluorescence based assay
# T2 sequence (P05979 whole entry): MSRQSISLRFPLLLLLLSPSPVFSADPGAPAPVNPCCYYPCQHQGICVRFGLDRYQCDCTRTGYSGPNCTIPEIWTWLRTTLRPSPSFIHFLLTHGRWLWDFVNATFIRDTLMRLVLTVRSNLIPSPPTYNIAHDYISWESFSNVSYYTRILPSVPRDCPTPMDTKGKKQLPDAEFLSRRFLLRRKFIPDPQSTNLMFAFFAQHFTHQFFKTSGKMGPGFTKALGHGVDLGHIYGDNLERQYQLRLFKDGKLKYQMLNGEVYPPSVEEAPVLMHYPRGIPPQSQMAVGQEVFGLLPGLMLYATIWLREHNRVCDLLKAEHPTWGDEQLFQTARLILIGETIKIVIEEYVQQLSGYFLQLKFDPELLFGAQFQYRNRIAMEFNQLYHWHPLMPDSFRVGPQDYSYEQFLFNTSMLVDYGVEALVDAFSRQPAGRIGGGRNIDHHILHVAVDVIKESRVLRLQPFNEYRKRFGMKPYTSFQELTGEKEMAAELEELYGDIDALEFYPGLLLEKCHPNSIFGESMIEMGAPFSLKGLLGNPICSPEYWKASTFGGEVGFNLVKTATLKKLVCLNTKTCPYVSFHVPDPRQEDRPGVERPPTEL
# [4] = Solubility of compound in normal saline; type: physicochemical
# [5] = Dissociation constant, pKa of compound; type: physicochemical
IC50 [1],Ratio IC50 [2],IC50 [3],solubility [4],pKa [5],Compound
38.2 µM,> 2.6,> 100 µM,,,C[Si](C)(C)c1c(-c2ccc(F)cc2)noc1-c1ccc(S(N)(=O)=O)cc1
0.13 µM,> 770,> 100 µM,,,C[Si](C)(C)c1onc(-c2ccccc2)c1-c1ccc(S(N)(=O)=O)cc1
1.87 µM,> 54,> 100 µM,,,C[Si](C)(C)c1onc(-c2ccc(F)cc2)c1-c1ccc(S(C)(=O)=O)cc1
0.93 µM,> 110,> 100 µM,,,C[Si](C)(C)c1onc(-c2ccc(F)cc2)c1-c1ccc(S(N)(=O)=O)cc1
0.042 µM,> 2400,> 100 µM,,,NS(=O)(=O)c1ccc(-c2conc2-c2ccc(F)cc2)cc1
0.048 µM,> 2100,> 100 µM,,,NS(=O)(=O)c1ccc(-c2conc2-c2ccccc2)cc1
81.2 µM,> 1.2,> 100 µM,,,NS(=O)(=O)c1ccc(-c2cc(-c3ccc(F)cc3)no2)cc1
> 100 µM,,> 100 µM,,,C[Si](C)(C)c1c(-c2ccccc2)noc1-c1ccc(S(C)(=O)=O)cc1
10.8 µM,> 9.3,> 100 µM,,,NS(=O)(=O)c1ccc(-c2cc(-c3ccccc3)no2)cc1
> 100 µM,,> 100 µM,,,CS(=O)(=O)c1ccc(-c2cc(-c3ccc(F)cc3)no2)cc1
,,,> 50 mg/mL,,CCC(=O)NS(=O)(=O)c1ccc(-c2c(-c3ccccc3)noc2C)cc1 [PARECOXIB]
0.351 µM,28.7,10.1 µM,,,CS(=O)(=O)c1ccc(-c2c(-c3ccc(F)cc3)noc2Cl)cc1

# More lines, now with the values behind:
Compound,IC50 [1],Ratio IC50 [2],IC50 [3],solubility [4],pKa [5]
CC(=O)c1onc(-c2ccc(F)cc2)c1-c1ccc(S(C)(=O)=O)cc1,> 100 µM,,> 100 µM,,
COC(=O)c1onc(-c2ccc(F)cc2)c1-c1ccc(S(C)(=O)=O)cc1,> 100 µM,,> 100 µM,,
CS(=O)(=O)c1ccc(-c2conc2-c2ccc(F)cc2)cc1,0.057 µM,> 1800,> 100 µM,,
Cc1onc(-c2ccccc2)c1-c1ccc(S(N)(=O)=O)cc1 [VALDECOXIB],,,,10 mM,9.8
Cc1onc(-c2ccc(F)cc2)c1-c1ccc(S(N)(=O)=O)cc1,0.073 µM,> 1400,> 100 µM,,
CS(=O)(=O)c1ccc(-c2c(-c3ccc(F)cc3)noc2C(=O)c2ccccc2)cc1,> 100 µM,,> 100 µM,,
C[Si](C)(C)c1c(-c2ccc(F)cc2)noc1-c1ccc(S(C)(=O)=O)cc1,> 100 µM,,> 100 µM,,
CS(=O)(=O)c1ccc(-c2c(-c3ccc(F)cc3)noc2C(F)(F)F)cc1,8.14 µM,> 12,> 100 µM,,
CS(=O)(=O)c1ccc(-c2cc(-c3ccccc3)no2)cc1,13.5 µM,> 7.4,> 100 µM,,
C[Si](C)(C)c1c(-c2ccccc2)noc1-c1ccc(S(N)(=O)=O)cc1,11.1 µM,> 9,> 100 µM,,
C[Si](C)(C)c1onc(-c2ccccc2)c1-c1ccc(S(C)(=O)=O)cc1,4.17 µM,23.9,> 100 µM,,
CS(=O)(=O)c1ccc(-c2conc2-c2ccccc2)cc1,0.247 µM,> 400,> 100 µM,,
CS(=O)(=O)c1ccc(-c2c(-c3ccc(F)cc3)noc2C=O)cc1,13.8 µM,> 7,> 100 µM,,
